# Measurements: US20250231108A1, “TR[…]” (SUMITOMO CHEMICAL COMPANY, LIMITED, priority 2022, published 2025)
# Tested on: TA1537
# Assay: Ames test (Ames MPF microplate format) without metabolic activation, toxicity to tester assessed by transparency index T from plate image
# Conditions: for transparency index T: TA1537, no metabolic activation, average of three assessment plates, FIG. 14, T smaller than 1 means high transparency (cells dead)
# Procedure: A tester (bacterium having amino acid-requiring mutation, for example, Salmonella typhimurium: a TA100 strain, a TA98 strain, a TA1535 strain, or a TA1537 strain, Escherichia coli: a WP2uvrA strain or the like) that is used is inoculated in 60 mL of Nutrient broth medium, and is shaken and cultured at 37° C. for 9 to 10 hours to be proliferated.
# The test substance prepared in the step 2A is dissolved or suspended in an adequate medium, and the resultant solution is diluted by using the medium in staged to prepare concentration series of the test substance solution. In a case where the same test substance is assessed with six concentrations different from each other, six test substance solutions having concentrations different from each other are prepared.
# The medium used in preparation of the test substance solution, the concentration series of the test substance solution, and the solution of the positive control compound (collectively referred to as “test substance solution or the like”) are put into individual wells of a 24-well plate (a plate having 24 wells) by 10 μL.
# 0.175 to 0.7 mL of the tester culture solution (typically at a concentration exceeding 1×10^9 cells/mL) and 6.83 to 6.3 mL of a medium (minimal medium in which a carbon source is added and which is deficient in amino acid) are mixed. The resultant mixture is referred to as a preparation bacterial solution under conditions of the absence of metabolic activation. […]
# Specifically, first, an angle θ1 between the centroid vector V1 and the first reference vector V2 and an angle θ2 between the centroid vector V1 and the second reference vector V3 are compared. In a case where the angle θ1 is equal to or smaller than the angle θ2, a transparency index T is calculated based on an expression (1). In a case where the angle θ2 is larger than the angle θ1, the transparency index T is calculated based on an expression (2). […]
smiles,measurement,setting,value
ClCc1ccc(Cl)cc1 [4-chlorobenzyl chloride],toxicity to the tester (cells),"TA1537, 1.95-2,000 μg/mL in DMSO, no metabolic activation, conclusion from transparency index T",toxic to the tester
same,transparency index T,"section Se6, test substance 500 μg/mL",reduced
same,transparency index T,"section Se7, test substance 2,000 μg/mL",reduced
